Results from patent US12226405B2, “Compounds and compositions for inhibiting the activity of HIF2-alpha and their methods of use” (Novartis AG, priority 2020, dated 2025).

Key:
[1] = target: HIF2α PAS-B domain (236-350, biotinylated on the N-terminus) (Homo sapiens (Human), UniProt Q99814)
Procedure: The assay buffer contained 50 mM Tris-HCl pH7 (Sigma), 20 mM NaCl (Fluka), 0.02% BSA (Sigma), 0.005% Triton X-100 (Pierce) and 1 mM DTT (Fluka). After a 30 min incubation period, 5 μL Streptavidin PVT SPA Beads (Perkin Elmer) at 1.2 mg/mL, diluted in the buffer, were added.

[2] = system: HIF2α-dependent transcription in 786-O-HRE-Luc cells; test: In vitro cellular hypoxia response element (HRE) reporter gene assay (RGA) for HIF2α; format: cell-based, human; conditions: Homo sapiens, 24 hours incubation
Procedure: (§1) Stock solutions of compounds were prepared at a concentration of 10 mM in DMSO and stored at 4° C. Where necessary to afford a full dose-response curve, the stock solutions were pre-diluted in DMSO to 1,000-fold the desired reduced start concentration. On the day after cell seeding, eleven 2-fold serial dilutions of each compound were dispensed directly into the cell assay plates using either HP 300D non-contact Digital Dispenser (TECAN) or a ATS100 acoustic dispenser (EDC Biosystems).
The ability of compounds to inhibit HIF2α- and HIF1α-dependent transcription was assessed in 786-O-HRE-Luc and RCC4-HRE-Luc cells, respectively. The putative unselective inhibition of firefly luciferase activity or expression was assessed in 786-O-UB6-Luc and RCC4-UB6-Luc cells, respectively. The reporter lines were generated as follows: 786-O (RRID: CVCL_1051) and RCC4 (RRID: CVCL_0498) clear cell renal carcinoma cell lines were obtained from ATCC and Celeste Simon (University of Pennsylvania), respectively. Either cell line was transduced with a lentiviral vector in which the expression of a PEST-destabilized version of firefly-luciferase is under the control of either a minimal promoter coupled to four copies of a minimal hypoxia response element (HRE) sequence (pLenti 4×HRE Luc PEST), or a promoter from the house-keeping UBC gene (pLenti UB6 Luc PEST). In short, for the construction of the pLenti 4×HRE Luc PEST vector, 4×HRE DNA oligonucleotides were synthesized, annealed and cloned into pGL4.27 plasmid vector (Promega) predigested with NheI and HindIII restriction enzymes. The sequence of the two DNA oligonucleotides was as follows: NheI 4×HRE HindIII FWD: […] (SEQ ID NO: 8); NheI 4×HRE HindIII REV […] (SEQ ID NO: 9). The 4×HRE Luc PEST fragment was then PCRed from this plasmid with restriction enzyme sites NheI and XhoI at the two ends, and inserted into pLenti6/BLOCK iT DEST (Thermo Fisher Scientific) predigested with NheI and XhoI restriction enzymes. For the construction of the pLenti UB6 Luc PEST vector, the Luc PEST sequence was PCRed from pGL4.27 (Promega) using EcoRV and XhoI restriction enzymes at the two ends, and inserted into pLenti6/UBC/V5/DEST (Thermo Fisher Scientific) predigested with the same enzymes. 786-O and RCC4 cells (300,000 per well of a 6 well plate) were infected in the presence of 10 μg/ml polybrene with lentivirus harvested two days after transfection of HEK293-FT (ThermoFisher Scientific #R70007) cells (80% confluent in a 100 cm^2 dish) with a mix of 1.5 ml OptiMEM (ThermoFisher Scientific #31985062) containing 3 μg of the desired plasmids and 9 μl of ViralPower Packaging mix (ThermoFisher Scientific #K497500), and 1.5 ml OptiMEM containing 36 μl Lipofectamine 2000 (ThermoFisher Scientific #11668019). Successfully infected cells were selected using blasticidin (Gibco #A11139-03) at a final concentration of 5 μg/ml. The resulting stable cell lines were named 786-O pLenti 4×HRE Luc PEST (short: 786-O-HRE-Luc), 786-O pLenti UB6 Luc PEST (short: 786-O-UB6-Luc), RCC4 pLenti 4×HRE Luc PEST (short: RCC4-HRE-Luc) and RCC4 pLenti UB6 Luc PEST (short: RCC4-UB6-Luc). All 4 cell lines were maintained in growth medium composed of DMEM (GIBCO #11995-065), 2 mM L-Glutamine (BioConcept #5-10K50-H), 10% fetal calf serum (Gibco #A31608-01), 1× Penicillin/Streptomycin (BioConcept #4-01F00-H), 1 mM Sodium pyruvate (BioConcept #5-60F00-H) and 5 μg/ml blasticidin (Gibco #A11139-03) at 37° C. in a humidified 5% CO2 incubator.
For the reporter gene assay, the individual cell lines were seeded at 2,500 cells/20 μL/well into white-wall, clear-bottom 384-well plates (Greiner #781098) and incubated over night at 37° C. prior to addition of serial compound dilutions as described above. […]

[3] = system: HIF2α-regulated expression of the endogenous target gene hEGLN3 in 786-O cells; test: Cellular iScript assay for HIF2α (quantitative RT-PCR of hEGLN3); format: cell-based, human; conditions: Homo sapiens, 786-0, 48 hours incubation
Procedure: as §1
Compound-mediated modulation of the HIF2α-regulated expression of the endogenous target gene hEGLN3 (OMIM: 606426), as well as beta-actin (OMIM: 102630) as a house-keeping control, was assess in 786-O cells (RRID CVCL_1051) using a quantitative RT-PCR approach. In short, 786-O cells were maintained in growth medium composed of DMEM (GIBCO #11995-065), 2 mM L-Glutamine (BioConcept #5-10K50-H), 1× Penicillin/Streptomycin (BioConcept #4-01F00-H), 10% fetal calf serum (Gibco #A31608-01), 1 mM Sodium pyruvate (BioConcept #5-60F00-H). Cells were seeded at 1,000 cells/20 μL/well into white-wall, clear-bottom 384-well plates (Greiner #781098) and incubated over night at 37° C. prior to addition of serial compound dilutions as described above. Following incubation for 48 hours at 37° C., medium supernatant was discarded and the plate blotted dry by inverting on a tissue. The same procedure was repeated following one wash with 20 μL phosphate-buffered saline. Following addition of 25 μL/well iScript sample preparation reagent (BioRad #170-8899) using a 16-channel Matrix pipette, the plate was incubated for 2 min at room temperature. 20 μL lysate supernatant was then removed and transferred to a new 384 well plate (Costar #3656) and diluted 1:3 by adding 5 μL of the lysate to 10 μL H2O using a Bravo liquid handler (Agilent). 2 μL of the diluted lysate was added to the 8 μL of a mastermix containing 5 μL iTaq Universal Probes One-step kit (BioRad #172-5141), 0.25 μL iScript reverse transcription supermix (BioRad #1708840), 0.25 μL 40×HEX-ZEN-labeled TaqMan probe for beta-actin (IDT #Hs.PT.39a.22214847: Probe 5′ HEX-TCA TCC ATG/ZEN/GTG AGC TGG CGG-3′ (SEQ ID NO: 2) Iowa Black FQ, Primer 1: ACA GAG CCT CGC CTT TG (SEQ ID NO: 3); Primer 2: CCT TGC ACA TGC CGG (SEQ ID NO: 4) AG), 0.25 μL, 40×FAM-ZEN-labeled TaqMan probe for hEGLN3 (IDT #Hs.PT.58.189348: Probe 5′ 6-FAM-TTT GGC TTC/ZEN/TGC CCT TTC TTC AGC-3′ (SEQ ID NO: 5) Iowa Black FQ, Primer 1: CACGGTCAGTCTTCAGTGAG (SEQ ID NO: 6); Primer 2: CGCAACCAGATATGCTATGACT (SEQ ID NO: 7)), 2.25 μL RNase-free water, prelaid in a 384 well plate (ABI #4309849) using a 16-channel Matrix pipette. The plate was sealed with a PCR-compatible optical film (MicroAmp, ABI #4360954) and centrifuged (1500 rpm, 5 min, +4° C.) to collect all reagents in the bottom of the well and to remove bubbles. The plate content was amplified on a 7900HT thermal cycler (ABI) using the following conditions: Step 1: 50° C. for 10 min, Step 2: 95° C. for 3 min, Step 3 (40×): 95° C. for 15 s, 60° C. for 1 min. ROX (reaction volume 10 μL) was used as a passive reference. Data were collected with manual adjustment of the Ct threshold (beta-actin: 0.046, hEGLN3: 0.06) and were analyzed using the 2^(−ΔΔCt) method. Thus, for each sample, the following values were calculated: 2^(−Ct)a for beta-actin, 2^(−Ct)e for EGLN3, and 2^(−ΔCt) calculated as (2^(−Ct)e/2^(−Ct)a). The mean 2^(−ΔCt) as well as the corresponding standard deviation was calculated for each sample. Taking the DMSO-treated sample as a reference, the 2^(−ΔΔCt) for each sample was calculated as follows: 2^(−ΔΔCt)=2^(−ΔCt)sample/(2^(−ΔCt)DMSO). After calculating differential expression as 2^(−ΔΔCt) for each sample, it was then expressed as a percentage (×100) to obtain a dose-response curve in % of DMSO control and IC50s were calculated using a four-parametric fit model.

Chain of HIF2α PAS-B domain (236-350, biotinylated on the N-terminus) (Q99814 236-350): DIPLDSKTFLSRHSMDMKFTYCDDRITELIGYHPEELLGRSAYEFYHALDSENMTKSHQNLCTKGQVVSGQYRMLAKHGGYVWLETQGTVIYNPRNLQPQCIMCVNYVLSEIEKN

SMILES	IC50 [1]	IC50 [2]	IC50 [3]
Fc1c(Br)ccc2c1OC[C@@H](F)[C@@]21CN2C=C(C(F)(F)F)C=C(OC(F)F)C2=N1 [Example 58, (2′S,3S)-7-bromo-8′-(difluoromethoxy)-3,8-difluoro-6′-(trifluoromethyl)-3′H-spiro[chroman-4,2′-imidazo[1,2-a]pyridine]]	8 nM	183 nM	173 nM
COC1=CC(C(F)(F)F)=CN2C[C@@]3(CCC(F)(F)c4c3ccnc4Cl)N=C12 [Example 30, (S)-1′-chloro-8′,8′-difluoro-8-methoxy-6-(trifluoromethyl)-7′,8′-dihydro-3H,6′H-spiro[imidazo[1,2-a]pyridine-2,5′-isoquinoline]]	27 nM	1350 nM	129 nM
N#CC1=CN2C[C@@]3(CCc4cc(I)ccc43)N=C2C(OC(F)F)=C1 [Example 73, (S)-8-(difluoromethoxy)-5′-iodo-2′,3′-dihydro-3H-spiro[imidazo[1,2-a]pyridine-2,1′-indene]-6-carbonitrile]	≤ 6 nM	542 nM	135 nM
FC(F)OC1=CC(C(F)(F)F)=CN2C[C@@]3(CCOc4c(C(F)F)cccc43)N=C12 [Example 55, (S)-8′-(difluoromethoxy)-8-(difluoromethyl)-6′-(trifluoromethyl)-3′H-spiro[chroman-4,2′-imidazo[1,2-a]pyridine]]	9 nM	7650 nM	115 nM
N#CC1=CN2C[C@@]3(CCCc4c3ccc(Br)c4F)N=C2C(OC(F)F)=C1 [Example 13, (S)-6′-bromo-8-(difluoromethoxy)-5′-fluoro-3′,4′-dihydro-2′H,3H-spiro[imidazo[1,2-a]pyridine-2,1′-naphthalene]-6-carbonitrile]	5 nM	113 nM	42 nM
Fc1ccc2c(c1F)OC[C@H](F)[C@@]21CN2C=C(C(F)(F)F)C=C(OC(F)F)C2=N1 [Example 98, (3R,4S)-8′-(difluoromethoxy)-3,7,8-trifluoro-6′-(trifluoromethyl)-3′H-spiro[chromane-4,2′-imidazo[1,2-a]pyridine]]	17 nM	120 nM	104 nM
N#Cc1ccc2c(c1Cl)OCC[C@@]21CN2C=C(C(F)(F)F)C=C(OC(F)F)C2=N1 [Example 96, (S)-8-chloro-8′-(difluoromethoxy)-6′-(trifluoromethyl)-3′H-spiro[chromane-4,2′-imidazo[1,2-a]pyridine]-7-carbonitrile]	32 nM	518 nM	199 nM
Fc1c(Br)ccc2c1[C@@H](F)[C@H](F)C[C@@]21CN2C=C(C(F)(F)F)C=C(OC(F)F)C2=N1 [Example 83, (2S,3′R,4′R)-6′-bromo-8-(difluoromethoxy)-3′,4′,5′-trifluoro-6-(trifluoromethyl)-3′,4′-dihydro-2′H,3H-spiro[imidazo[1,2-a]pyridine-2,1′-naphthalene]]	9 nM	27 nM	30 nM
Fc1c(SC(F)F)ccc2c1OCC[C@@]21CN2C=C(C(F)(F)F)C=C(OC(F)F)C2=N1 [Example 106, (S)-8′-(difluoromethoxy)-7-((difluoromethyl)thio)-8-fluoro-6′-(trifluoromethyl)-3′H-spiro[chromane-4,2′-imidazo[1,2-a]pyridine]]	10 nM	148 nM	81 nM
FC(F)OC1=CC(C(F)(F)F)=CN2C[C@@]3(CCCc4c3ccnc4Cl)N=C12 [Example 36, (S)-1′-chloro-8-(difluoromethoxy)-6-(trifluoromethyl)-7′,8′-dihydro-3H,6′H-spiro[imidazo[1,2-a]pyridine-2,5′-isoquinoline]]	6 nM	147 nM	73 nM
N#Cc1ccc2c(c1F)CCC[C@@]21CN2C=C(C(F)(F)F)C=C(OC(F)F)C2=N1 [Example 22, (S)-8-(difluoromethoxy)-5′-fluoro-6-(trifluoromethyl)-3′,4′-dihydro-2′H,3H-spiro[imidazo[1,2-a]pyridine-2,1′-naphthalene]-6′-carbonitrile]	8 nM	185 nM	37 nM
